Test results as given in patent US20050148514A1, “Method and composition for treatment of angiogenesis” (priority 2003, published 2005).
Where no end group is shown, it is not given here. The star is where a group is joined. Acm = CC(=O)NC*

Assays:
[1] = test system: tumor growth; details: animals, previous results; cited from earlier work
[2] = test system: ERK; assay: Growth factor-induced ERK phosphorylation in HUVEC (western blot); assay type: cell-based, Human; details: serum-starved HUVEC, 300 μg/ml for 24 h, then VEGF
Procedure: (§1) Cell culture. Human umbilical vein endothelial cells (HUVEC) and pulmonary aortic smooth muscle cells (PASMC) were obtained from Clonetics and maintained in endothelial cell basal medium-2, (EBM-2; Clonetics) and smooth muscle medium-2 (SmGM-2; Clonetics), respectively. Cells were cultured at 37° C. under a humidified atmosphere containing 5% CO2. For experimental purposes, cells were plated in 8 100-mm plastic dishes at 5,000 cells/cm^2 and were grown to confluence before overnight serum starvation. Cells were treated with vehicle or with a PCK3145 derivative diluted in 0.1 N NaOH, and stimulated with 50 ng/ml VEGF, PDGF or with 1 μM S1P.
Immunoprecipitation and immunoblotting procedures. After treatment, cells were washed once with phosphate-buffered saline (PBS) containing 1 mM sodium orthovanadate and were incubated in the same medium for 1 h at 4° C. The cells were solubilized on ice in lysis buffer (150 mM NaCl, 10 mM Tris-HCl, pH 7.4, 1 mM EDTA, 1 mM EGTA, 0.5% Nonidet P-40, 1% Triton X-100) containing 1 mM sodium orthovanadate. The cells were then scraped from the culture dishes and the resulting lysates were clarified by centrifugation at 10,000 g for 10 min. Protein concentrations were determined using the micro bicinchoninic acid method. For immunoprecipitation studies, lysates were clarified by a 1 h incubation at 4° C. with a mixture of Protein A/Protein G Sepharose beads. After removal of the Sepharose beads by low-speed centrifugation, identical amounts of protein (200 μg) from each sample were transferred to fresh tubes and incubated in lysis buffer overnight at 4° C. in the presence of 2 μg/ml of specific antibodies. Immunocomplexes were collected by incubating the mixture with 25 μl (50% suspension) of Protein A—(rabbit primary antibody) or Protein G—(mouse primary antibody) Sepharose beads, for 2 h. Nonspecifically-bound material was removed by washing the beads three times in 1 ml of lysis buffer containing 1 mM sodium orthovanadate, and bound material was solubilized in 25 μl of two-fold concentrated Laemmli sample buffer, boiled 5 min, and resolved by SDS-PAGE. The proteins were transferred onto polyvinylidene difluoride (PVDF) membranes, blocked 1 h at room temperature with Tris-buffered saline/Tween 20 (147 mM NaCl, 20 mM Tris/HCl, pH 7.5, and 0.1% Tween 20) containing 2% bovine serum albumin and incubated overnight at 4° C. with primary antibody.
VEGF is a strong activator of ERKs (Extracellular-signal-Regulated protein Kinases) 1 and 2 via VEGF receptor 2. In order to test the ability of the PCK3145 derivative in potentially antagonizing VEGF-mediated ERK phosphorylation, serum-starved quiescent endothelial cells (HUVEC) were incubated with vehicle (phosphate-buffered saline (PBS) pH 7.4) or PCK3145 derivative (300 μg/ml) for 24 h and then stimulated with VEGF, bFGF (basic Fibroblast Growth Factor) or S1P (sphingosine-1-phosphate). Cells were washed with PBS containing NaF/Na3VO4 and incubated in the same medium buffer for 1 h at 4° C. The cells were scraped from the culture dishes and the resulting lysates clarified by centrifugation. Western blotting and immunodetection using anti-phosphoERK and anti-ERK antibodies was then performed.

[3] = biological target: T1, VEGFR-2 (Homo sapiens, UniProt P35968); assay: VEGF-induced VEGFR-2 phosphorylation in HUVEC (immunoprecipitation, western blot); assay type: cell-based; details: serum-starved HUVEC, 300 μg/ml; 24 h
T1 construct: host or cells: HUVEC
Procedure: as §1
Immunoprecipitation and immunoblotting procedures. After treatment, cells were washed once with phosphate-buffered saline (PBS) containing 1 mM sodium orthovanadate and were incubated in the same medium for 1 h at 4° C. The cells were solubilized on ice in lysis buffer (150 mM NaCl, 10 mM Tris-HCl, pH 7.4, 1 mM EDTA, 1 mM EGTA, 0.5% Nonidet P-40, 1% Triton X-100) containing 1 mM sodium orthovanadate. The cells were then scraped from the culture dishes and the resulting lysates were clarified by centrifugation at 10,000 g for 10 min. Protein concentrations were determined using the micro bicinchoninic acid method. For immunoprecipitation studies, lysates were clarified by a 1 h incubation at 4° C. with a mixture of Protein A/Protein G Sepharose beads. After removal of the Sepharose beads by low-speed centrifugation, identical amounts of protein (200 μg) from each sample were transferred to fresh tubes and incubated in lysis buffer overnight at 4° C. in the presence of 2 μg/ml of specific antibodies. […]
The multifunctionality of VEGF at the cellular level results from its ability to initiate a diverse, complex and integrated network of signaling pathways via its major receptor, VEGFR-2. […] After each treatment, equal amounts of protein were immunoprecipitated with anti-VEGFR-2 polyclonal antibodies and analysed by Western blotting.

[4] = test system: ERK; assay: Intrinsic effect on ERK phosphorylation (western blot); assay type: cell-based; details: MAPK inhibitor added with PCK3145 derivative
Procedure: In order to investigate the potential intracellular pathways triggered by the PCK3145 derivative, a gene-reporter assay using the SEAP (Secreted Alkaline Phosphatase) Mercury Profiling Kit (CLONTECH) was performed in glioma cells (U-87). This assay enables the monitoring of transcription factors that are triggered by a particular experimental condition by assaying the alkaline phosphatase activity in the extracellular media. […] The induction of the MAPK pathway by the PCK3145 derivative is further confirmed by the rapid and transient induction of ERK phosphorylation between 5-10 minutes (FIG. 8B) and is shown to be dose-dependent (FIG. 8C). Finally, the effects of the PCK3145 derivative were also compared to those of a scrambled peptide.

[5] = test system: ERK; details: cited from earlier work
[6] = test system: tumor cells; details: cited from earlier work
[7] = test system: skeletal metastasis; details: cited from earlier work

T1 sequence (P35968 20-1356): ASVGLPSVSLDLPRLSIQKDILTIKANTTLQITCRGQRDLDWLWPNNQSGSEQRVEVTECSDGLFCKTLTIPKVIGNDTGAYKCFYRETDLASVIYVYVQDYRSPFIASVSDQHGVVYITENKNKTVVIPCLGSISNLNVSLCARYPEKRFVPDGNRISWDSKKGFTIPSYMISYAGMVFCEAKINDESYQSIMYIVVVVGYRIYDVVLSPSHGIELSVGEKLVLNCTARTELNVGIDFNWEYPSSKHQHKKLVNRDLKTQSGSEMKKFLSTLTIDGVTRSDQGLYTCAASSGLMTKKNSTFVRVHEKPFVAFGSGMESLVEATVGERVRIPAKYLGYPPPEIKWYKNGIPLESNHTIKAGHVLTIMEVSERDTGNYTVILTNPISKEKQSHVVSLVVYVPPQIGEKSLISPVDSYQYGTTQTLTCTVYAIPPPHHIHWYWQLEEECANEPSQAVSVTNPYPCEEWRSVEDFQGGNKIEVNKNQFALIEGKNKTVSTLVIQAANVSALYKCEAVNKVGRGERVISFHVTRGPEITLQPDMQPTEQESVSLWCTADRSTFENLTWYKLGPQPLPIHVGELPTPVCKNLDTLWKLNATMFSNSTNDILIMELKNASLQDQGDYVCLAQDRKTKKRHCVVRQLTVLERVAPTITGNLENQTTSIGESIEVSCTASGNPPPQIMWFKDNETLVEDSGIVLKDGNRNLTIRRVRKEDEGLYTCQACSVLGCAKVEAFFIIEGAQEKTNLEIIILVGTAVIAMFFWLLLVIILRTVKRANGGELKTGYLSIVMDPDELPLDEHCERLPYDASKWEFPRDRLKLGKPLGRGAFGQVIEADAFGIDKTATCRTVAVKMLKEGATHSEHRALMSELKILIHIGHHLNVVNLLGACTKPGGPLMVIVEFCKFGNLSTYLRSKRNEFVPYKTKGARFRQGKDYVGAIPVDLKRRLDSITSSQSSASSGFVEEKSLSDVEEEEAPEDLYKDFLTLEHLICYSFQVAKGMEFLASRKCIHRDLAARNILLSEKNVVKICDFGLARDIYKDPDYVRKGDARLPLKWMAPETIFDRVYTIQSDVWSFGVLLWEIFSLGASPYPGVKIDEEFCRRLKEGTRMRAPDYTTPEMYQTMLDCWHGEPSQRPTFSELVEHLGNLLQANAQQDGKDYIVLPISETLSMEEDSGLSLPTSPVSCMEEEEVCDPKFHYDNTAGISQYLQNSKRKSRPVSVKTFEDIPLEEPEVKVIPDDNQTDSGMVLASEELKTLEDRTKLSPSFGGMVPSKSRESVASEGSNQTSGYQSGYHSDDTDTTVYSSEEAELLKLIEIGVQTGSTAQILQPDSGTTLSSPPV

Molecule: EWQTDNCETCTCYET (cysteine pairing not given here) [PCK3145]
- tumor growth [1]: tumor growth inhibition

Molecule: Thr-Cys(Acm)-Glu-Asn-Cys(Acm)-Thr-Glu-Thr-Gln-Trp-Cys(Acm)-Glu-Thr-Asp-Tyr (TC(Acm)ENC(Acm)TETQWC(Acm)ETDY) [scrambled peptide, negative control, reference compound]
- ERK phosphorylation induced by VEGF [2]: lack of effect
- phosphorylation of VEGFR-2 induced by VEGF [3]: lack of effect

Molecule: COc1cccc(-c2cc(=O)c3ccccc3o2)c1N [PD98059, reference compound]
- effect on induction of ERK phosphorylation by the PCK3145 derivative [4]: antagonized
- ERK phosphorylation (pharmacological inhibitor, documented) [5]: documented pharmacological inhibitor of ERK phosphorylation

B1: Ser Cys Tyr Phe Ile Pro Asn Glu Gly Val Pro Gly Asp Ser Thr Arg Lys Cys Met Asp Leu Lys Gly Asn Lys His Pro Ile Asn Ser Glu Trp Gln Thr Asp Asn Cys Glu Thr Cys Thr Cys Tyr Glu Thr Glu Ile Ser Cys Cys … (protein, listed as Homo sapiens)
chain: SCYFIPNEGVPGDSTRKCMDLKGNKHPINSEWQTDNCETCTCYETEISCCTLVSTPVGYDKDNCQRIFKKEDCKYIVVEKKDPKKTCSVSEWII
notes: Prostate secretory protein, wild type
- growth of tumor cells [6]: inhibits growth
- calcium levels ([7]; animal modeling prostate cancer): reduction in calcium levels
- development of skeletal metastasis ([7]; in vivo): reduces the development of skeletal metastasis
